This passage reports pKi results from US8372865B2, “Dihydropyridone amides as P2X7 modulators” (Roche Palo Alto LLC, priority 2008, dated 2013).

Each structure is given as a SMILES string.

This assay deals with T1, P2X7 receptor (UniProt Q99572).
T1 sequence (Q99572 1-595): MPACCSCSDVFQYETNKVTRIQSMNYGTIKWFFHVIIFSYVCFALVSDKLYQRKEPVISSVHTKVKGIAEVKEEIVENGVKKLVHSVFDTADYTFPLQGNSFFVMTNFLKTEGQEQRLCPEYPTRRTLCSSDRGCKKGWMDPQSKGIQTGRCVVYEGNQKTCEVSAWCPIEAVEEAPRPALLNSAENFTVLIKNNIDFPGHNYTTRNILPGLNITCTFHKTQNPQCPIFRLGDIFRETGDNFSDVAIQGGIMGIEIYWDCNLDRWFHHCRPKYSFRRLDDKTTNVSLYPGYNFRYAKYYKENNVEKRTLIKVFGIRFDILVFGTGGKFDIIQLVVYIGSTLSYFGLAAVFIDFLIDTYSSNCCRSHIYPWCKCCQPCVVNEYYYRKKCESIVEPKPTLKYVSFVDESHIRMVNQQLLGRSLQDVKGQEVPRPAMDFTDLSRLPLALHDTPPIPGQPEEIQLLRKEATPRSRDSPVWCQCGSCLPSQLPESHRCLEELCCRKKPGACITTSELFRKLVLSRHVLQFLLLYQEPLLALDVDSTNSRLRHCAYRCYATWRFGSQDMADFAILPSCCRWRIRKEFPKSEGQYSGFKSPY
Description: pKi of Table 1 (assay not stated). Format: cell-based. On the procedure:
Intracellular Calcium Flux (FLIPR) Assay
Stock solutions of compounds were prepared from powders as a 10 mM DMSO stock solution. These solutions were stored at RT during the two week period of these experiments to prevent freeze-thaw of the DMSO stocks. The DMSO stocks were added to the appropriate assay buffer at a concentration of 10 μM, and then diluted serially to the final concentrations that were tested. […] The aqueous solutions of compounds as well as ATP (Sigma A7699) and BzATP (Sigma B6396) were prepared fresh for each day of experiment.
1321N1 cells stably expressing the full length human P2X7 gene (1321N1-hP2X7) and HEK293 cells stably expressing the full length rat P2X7 gene (HEK293-rP2X7) were obtained from the Roche Cell Culture Facility. 1321N1-hP2X7 cells were grown in Dulbecco's Modified Eagle's Medium (DMEM) high glucose supplemented with 10% FBS and 250 μg/mL G418. HEK293-rP2X7 cells were grown in DMEM/F-12 supplemented with 10% FBS, 1 mM CaCl2, 2 mM MgCl2, 2 mM L-Glutamine and 500 μg/ml G418. Cells were split such that they never became>70% confluent.
On the day prior to the experiment, 1321N1-hP2X7 or HEK293-rP2X7 cells were released into suspension with calcium-free PBS+Versene and washed by centrifugation with calcium-free PBS to remove the Versene. Cells were resuspended in growth medium at a density of 2.5×10^5 cells/mL and seeded into black walled, clear bottom 96 well plates (50,000 cells/well) approximately 18 hr prior to intracellular calcium flux experiments.
On the day of the experiment, plates were washed with FLIPR buffer (calcium- and magnesium-free Hank's Balanced Salt Solution (HBSS) supplemented with 10 mM Hepes, 2.5 mM probenecid and 2 mM calcium chloride) using a BIO-TEK 96 channel plate washer and incubated with […] fluo-3 dye at 37° C. for one hr. The dye was then removed by plate washing and the cells were allowed to equilibrate for 20 min at room temperature with antagonist or vehicle (FLIPR buffer). Agonist (100 μM BzATP final concentration for hP2X7; 5 μM BzATP final concentration or rP2X7) was added online with the FLIPR and fluorescence measurements made at 1 sec intervals for 60 sec followed by 3 sec intervals for a further 4 min (5 min total). A final addition of 5 μM ionomycin was made and the maximal BzATP-evoked fluorescence normalized to the maximal ionomycin-evoked fluorescence.
In the case of `O=C1CC(c2cccc(F)c2)C(C(=O)Nc2cccc3[nH]ccc23)=CN1` (stereo not drawn) [Compound 1, 4-(3-Fluoro-phenyl)-6-oxo-1,4,5,6-tetrahydro-pyridine-3-carboxylic acid (1H-indol-4-yl)-amide], the negative logarithm of the Ki (pKi) (commonly the negative decadic logarithm of the Ki, by convention in mol/L) was 5.86.

Molecule `O=C1CC(c2cccc(F)c2)C(C(=O)Nc2ccc3cc[nH]c3c2)=CN1` (stereo not drawn) [Compound 2, 4-(3-Fluoro-phenyl)-6-oxo-1,4,5,6-tetrahydro-pyridine-3-carboxylic acid (1H-indol-6-yl)-amide] registered a pKi of 5.24.

Molecule `O=C1C[C@@H](c2cccc(F)c2)C(C(=O)Nc2ccc3ncccc3c2Br)=CN1` [Compound 4, (S)-4-(3-Fluoro-phenyl)-6-oxo-1,4,5,6-tetrahydro-pyridine-3-carboxylic acid (5-bromo-quinolin-6-yl)-amide] came in with a pKi of 6.953.

`O=C1C[C@@H](c2ccc(F)cc2)C(C(=O)Nc2cccc3ncccc23)=CN1` [Compound 5, (S)-4-(4-Fluoro-phenyl)-6-oxo-1,4,5,6-tetrahydro-pyridine-3-carboxylic acid quinolin-5-ylamide] yielded a pKi of 5.345.

Take `O=C1C[C@@H](c2ccc(F)cc2)C(C(=O)Nc2ccc3ncccc3c2Br)=CN1` [Compound 6, (S)-4-(4-Fluoro-phenyl)-6-oxo-1,4,5,6-tetrahydro-pyridine-3-carboxylic acid (5-bromo-quinolin-6-yl)-amide]: the negative-log Ki (pKi) is recorded as 7.135.

The molecule `CCc1cc2ncccc2cc1NC(=O)C1=CNC(=O)C[C@H]1c1ccc(F)cc1` [Compound 7, (S)-4-(4-Fluoro-phenyl)-6-oxo-1,4,5,6-tetrahydro-pyridine-3-carboxylic acid (7-ethyl-quinolin-6-yl)-amide] gave a negative logarithm of the Ki (pKi) of 6.673.

In turn, `CCc1c(NC(=O)C2=CNC(=O)C[C@H]2c2ccc(F)cc2)ccc2ncccc12` [Compound 8, (S)-4-(4-Fluoro-phenyl)-6-oxo-1,4,5,6-tetrahydro-pyridine-3-carboxylic acid (5-ethyl-quinolin-6-yl)-amide] had a pKi of 7.69.

As to `Cc1cc2ccn(CCO)c2cc1NC(=O)C1=CNC(=O)C[C@H]1c1ccc(F)cc1` [Compound 9, (S)-4-(4-Fluoro-phenyl)-6-oxo-1,4,5,6-tetrahydro-pyridine-3-carboxylic acid [1-(2-hydroxy-ethyl)-5-methyl-1H-indol-6-yl]-amide], the pKi stood at 7.71.

As for `Cc1c(NC(=O)C2=CNC(=O)C[C@H]2c2cccc(F)c2)ccc2ncccc12` [Compound 10, (S)-4-(3-Fluoro-phenyl)-6-oxo-1,4,5,6-tetrahydro-pyridine-3-carboxylic acid (5-methyl-quinolin-6-yl)-amide], the pKi is 6.645.

On to `O=C1C[C@@H](c2cccc(F)c2)C(C(=O)Nc2cc3c(cc2Br)CCC(=O)N3)=CN1` [Compound 11, (S)-4-(3-Fluoro-phenyl)-6-oxo-1,4,5,6-tetrahydro-pyridine-3-carboxylic acid (6-bromo-2-oxo-1,2,3,4-tetrahydro-quinolin-7-yl)-amide], for which the pKi is recorded as 5.415.

The molecule `Cc1ccc2ncccc2c1NC(=O)C1=CNC(=O)C[C@H]1c1cccc(F)c1` [Compound 12, (S)-4-(3-Fluoro-phenyl)-6-oxo-1,4,5,6-tetrahydro-pyridine-3-carboxylic acid (6-methyl-quinolin-5-yl)-amide] gave a pKi of 7.695.

`CN1C(=O)CCc2cc(Br)c(NC(=O)C3=CNC(=O)C[C@H]3c3ccc(F)cc3)cc21` [Compound 13, (S)-4-(4-Fluoro-phenyl)-6-oxo-1,4,5,6-tetrahydro-pyridine-3-carboxylic acid (6-bromo-1-methyl-2-oxo-1,2,3,4-tetrahydro-quinolin-7-yl)-amide] returned a pKi of 6.9.

Turning to `O=C1C[C@@H](c2ccc(F)cc2)C(C(=O)Nc2cccc3cnccc23)=CN1` [Compound 14, (S)-4-(4-Fluoro-phenyl)-6-oxo-1,4,5,6-tetrahydro-pyridine-3-carboxylic acid isoquinolin-5-ylamide], the pKi was determined as 6.425.

`Cc1ccc2c(NC(=O)C3=CNC(=O)C[C@H]3c3ccc(F)cc3)cccc2n1` [Compound 15, (S)-4-(4-Fluoro-phenyl)-6-oxo-1,4,5,6-tetrahydro-pyridine-3-carboxylic acid (2-methyl-quinolin-5-yl)-amide] gave a pKi of 7.46.

As for `CCc1cc2ccn(CCO)c2cc1NC(=O)C1=CNC(=O)C[C@H]1c1ccc(F)cc1` [Compound 16, (S)-4-(4-Fluoro-phenyl)-6-oxo-1,4,5,6-tetrahydro-pyridine-3-carboxylic acid [5-ethyl-1-(2-hydroxy-ethyl)-1H-indol-6-yl]-amide], the pKi stood at 7.575.

`Cc1c(NC(=O)C2=CNC(=O)C[C@H]2c2ccc(F)cc2)ccc2ncccc12` [Compound 17, (S)-4-(4-Fluoro-phenyl)-6-oxo-1,4,5,6-tetrahydro-pyridine-3-carboxylic acid (5-methyl-quinolin-6-yl)-amide] registered a negative-log Ki (pKi) of 6.805.

Regarding `Cc1cc2c(cc1NC(=O)C1=CNC(=O)C[C@H]1c1ccc(F)cc1)N(C)C(=O)CC2` [Compound 18, (S)-4-(4-Fluoro-phenyl)-6-oxo-1,4,5,6-tetrahydro-pyridine-3-carboxylic acid (1,6-dimethyl-2-oxo-1,2,3,4-tetrahydro-quinolin-7-yl)-amide], the pKi amounted to 7.16.

For the molecule `O=C1C[C@@H](c2ccc(F)cc2)C(C(=O)Nc2cc3c(cc2Br)CCC(=O)N3CCO)=CN1` [Compound 19, (S)-4-(4-Fluoro-phenyl)-6-oxo-1,4,5,6-tetrahydro-pyridine-3-carboxylic acid [6-bromo-1-(2-hydroxy-ethyl)-2-oxo-1,2,3,4-tetrahydro-quinolin-7-yl]-amide], the pKi worked out at 5.535.

The molecule `Cc1cc2ncccc2cc1NC(=O)C1=CNC(=O)C[C@H]1c1cccc(F)c1` [Compound 20, (S)-4-(3-Fluoro-phenyl)-6-oxo-1,4,5,6-tetrahydro-pyridine-3-carboxylic acid (7-methyl-quinolin-6-yl)-amide] displayed a pKi of 6.825.

`O=C1C[C@@H](c2cccc(F)c2)C(C(=O)Nc2cc3c(cc2Br)OCC(=O)N3)=CN1` [Compound 21, (S)-4-(3-Fluoro-phenyl)-6-oxo-1,4,5,6-tetrahydro-pyridine-3-carboxylic acid (7-bromo-3-oxo-3,4-dihydro-2H-benzo[1,4]oxazin-6-yl)-amide] gave a pKi of 5.925.

Molecule `CN1C(=O)COc2cc(Br)c(NC(=O)C3=CNC(=O)C[C@H]3c3cccc(F)c3)cc21` [Compound 22, (S)-4-(3-Fluoro-phenyl)-6-oxo-1,4,5,6-tetrahydro-pyridine-3-carboxylic acid (7-bromo-4-methyl-3-oxo-3,4-dihydro-2H-benzo[1,4]oxazin-6-yl)-amide] had a negative logarithm of the Ki (pKi) of 6.905.

For the molecule `Cc1cc2c(cc1NC(=O)C1=CNC(=O)C[C@H]1c1ccc(F)cc1)N(C)C(=O)CO2` [Compound 23, (S)-4-(4-Fluoro-phenyl)-6-oxo-1,4,5,6-tetrahydro-pyridine-3-carboxylic acid (4,7-dimethyl-3-oxo-3,4-dihydro-2H-benzo[1,4]oxazin-6-yl)-amide], the pKi was 6.73.

Molecule `Cc1cc2c(cc1NC(=O)C1=CNC(=O)C[C@H]1c1cccc(F)c1)N(C)C(=O)CO2` [Compound 24, (S)-4-(3-Fluoro-phenyl)-6-oxo-1,4,5,6-tetrahydro-pyridine-3-carboxylic acid (4,7-dimethyl-3-oxo-3,4-dihydro-2H-benzo[1,4]oxazin-6-yl)-amide] registered a pKi of 7.015.

The molecule `CCc1cc2c(cc1NC(=O)C1=CNC(=O)C[C@H]1c1ccc(F)cc1)N(C)C(=O)CO2` [Compound 25, (S)-4-(4-Fluoro-phenyl)-6-oxo-1,4,5,6-tetrahydro-pyridine-3-carboxylic acid (7-ethyl-4-methyl-3-oxo-3,4-dihydro-2H-benzo[1,4]oxazin-6-yl)-amide] had a pKi of 6.88.
